Values after ≈ are worked out from the molar mass of the structure shown. Where two headings read alike, the source gives them in different places.
How the values were obtained:
Erysiphe graminis = assay: in vivo fungicide screen: wheat powdery mildew (WPM); settings: for % compared to control, WPM: 100 ppm, foliar spray before infection
fish = settings: in vivo; cited from earlier work
apples = settings: in vivo; cited from earlier work
[1] = test system: Xanthomonas campestris pv. campestris; assay: ED50 on bacteria, liquid nutrient medium: X. campestris pv. campestris; assay type: cell-based; settings: 48 h, Example 7, two days, read-out: ED50 concentration, X.C. pv. campestris
velvet leaf = assay: herbicide screening: velvet leaf; settings: in vivo
From the text: (§1) As noted above the compounds are ineffective as herbicides against one or more of the following weeds: average dicots, cocklebur, morning glory, pigweed, smartweed, velvet leaf, average monocots, barnyard grass, green foxtail, johnson grass, yellow nutsedge and the wild oat in both pre-emergent and post-emergent screening tests, at application rates of 2 lbs/acre for Compound 4, and 4 lbs/acre for Compound 5.

green foxtails = assay: herbicide screening: green foxtails; settings: in vivo
From the text: as §1

[2] = test system: haploid lab strain from Yeast I; assay: ED50 on yeast, liquid nutrient medium: Yeast II; assay type: cell-based; settings: Saccharomyces cerevisiae, 48 h, read-out: ED50 concentration, Yeast-II
Alternaria brassicicola = assay: ED50 on fungi, mycelial growth on V-8 juice agar: Alternaria brassicicola; assay type: cell-based; settings: Example 4, 72 hrs, read-out: ED50 concentration, AB
[3] = test system: Helminthosporium carbonum; assay: ED50 on fungi, mycelial growth on V-8 juice agar: Helminthosporium carbonum; assay type: cell-based; settings: Bipolaris zeicola, Example 3, 72 hrs, read-out: ED50 concentration, HC
average dicots = assay: herbicide screening: average dicots; settings: in vivo
From the text: as §1

[4] = test system: southern root knot nematode; assay: insecticide activity: southern root knot nematode; assay type: in vivo; settings: 150 to 600 ppm
green peach aphid = assay: insecticide activity: green peach aphid; assay type: in vivo; settings: 150 to 600 ppm
mexican bean beetle = assay: insecticide activity: mexican bean beetle; assay type: in vivo; settings: 150 to 600 ppm
Pellicularia filamentosa = assay: in vivo fungicide screen: rice sheath blight (RSB); settings: for % compared to control, RSB: 100 ppm, foliar spray before infection
[5] = test system: Pseudoperonospora cubensis; assay: in vivo fungicide screen: cucumber downy mildew (CDM); settings: for % compared to control, CDM: 100 ppm, foliar spray before infection
two-spotted spider mite = assay: insecticide activity: two-spotted spider mite; assay type: in vivo; settings: 150 to 600 ppm
Puccinia recondita = assay: in vivo fungicide screen: wheat leaf rust (WLR); settings: for % compared to control, WLR: 100 ppm, foliar spray before infection
Alternaria chrysanthemi = assay: ED50 on fungi, mycelial growth on V-8 juice agar: Alternaria chrysanthemi; assay type: cell-based; settings: Example 6, 72 hrs, read-out: ED50 concentration, AC
[6] = test system: Saccharomyces cerevisiae from Universal Foods; assay: ED50 on yeast, liquid nutrient medium: Yeast I; assay type: cell-based; settings: 48 h, read-out: ED50 concentration, Yeast-I
southern corn rootworm = assay: insecticide activity: southern corn rootworm; assay type: in vivo; settings: 150 to 600 ppm
[7] = test system: Agrobacterium tumefaciens; assay: ED50 on bacteria, liquid nutrient medium: Agrobacterium tumefaciens; assay type: cell-based; settings: 48 h, Example 9, two days, read-out: ED50 concentration, AT
Rhizobium japonicum = assay: ED50 on bacteria, liquid nutrient medium: Rhizobium japonicum; assay type: cell-based; settings: Bradyrhizobium japonicum, 48 h, Example 10, two days, read-out: ED50 concentration, RJ
Piricularia oryzae = assay type: in vivo
weeds = assay: pre-emergent and post-emergent herbicide screening tests; assay type: in vivo
From the text: as §1

Phytophtora infestans = assay type: in vivo
signal grass = assay: herbicide screening: signal grass; settings: in vivo
average monocots = assay: herbicide screening: average monocots; settings: in vivo
From the text: as §1

southern armyworm = assay: insecticide activity: southern armyworm; assay type: in vivo; settings: 150 to 600 ppm
Xanthomonas campestris = assay: activity on Xanthomonas campestris; assay type: cell-based
pigweed = assay: herbicide screening: pigweed; settings: in vivo
From the text: as §1

Cladosporium herbarum = assay: ED50 on fungi, mycelial growth on V-8 juice agar: Cladosporium herbarum; assay type: cell-based; settings: Example 2, 72 hrs, read-out: ED50 concentration, CH
Pyrenochaeta terrestris = assay: ED50 on fungi, mycelial growth on V-8 juice agar: Pyrenochaeta terrestris; assay type: cell-based; settings: Setophoma terrestris, Example 5, 72 hrs, read-out: ED50 concentration, PT
barnyard grass = assay: herbicide screening: barnyard grass; settings: in vivo
From the text: as §1

[8] = test system: Xanthomonas campestris pv. carotae; assay: ED50 on bacteria, liquid nutrient medium: X. campestris pv. carotae; assay type: cell-based; settings: 48 h, read-out: ED50 concentration, X.C. pv. carotae
morning glory = assay: herbicide screening: morning glory; settings: in vivo
From the text: as §1

johnson grass = assay: herbicide screening: johnson grass; settings: in vivo
From the text: as §1

yellow nutsedge = assay: herbicide screening: yellow nutsedge; settings: in vivo
From the text: as §1

smartweed = assay: herbicide screening: smartweed; settings: in vivo
From the text: as §1

cockleburr = assay: herbicide screening: cocklebur; settings: in vivo
From the text: as §1

wild oat = assay: herbicide screening: wild oat; settings: in vivo
From the text: as §1

flour beetles = settings: in vivo; cited from earlier work
houseflies = settings: in vivo; cited from earlier work
cockroaches = settings: in vivo; cited from earlier work
[9] = 100 ppm, foliar spray before infection

CC(C)(C)C(=O)C(Oc1ccc(Cl)cc1)n1cncn1 (stereo not drawn) [BAYLETON]
activity preventing infection of wheat by Erysiphe graminis (Erysiphe graminis; in vivo): 100% | toxicity to fish (fish): toxic to fish

CCCCNC(=O)n1c(NC(=O)OC)nc2ccccc21 [BENOMYL, methyl 1-(butylcarbamoyl)-2-benzimidazolecarbonate]
fruit finish of apples (apples): apples do not express fine fruit finish | activity preventing infection of wheat by Erysiphe graminis (Erysiphe graminis; in the range of 38-300 ppm): 100% | toxicity to fish (fish): toxic to fish

C=CCc1cc(OC)c(O)c2c1OCO2 [Compound 4, 6-methoxy-2,3-methylenedioxy-4-allyl phenol]
IC50 [1]: 10 µg/mL (≈ 48 µM) | herbicide effect, velvet leaf (velvet leaf): ineffective | herbicide effect, green foxtails (green foxtails): ineffective | IC50 ([2]; Example 12, liquid medium, two days): > 500 µg/mL | IC50 (Alternaria brassicicola): 8 µg/mL (≈ 38.4 µM) | IC50 [3]: 18 µg/mL (≈ 86.4 µM) | herbicide effect, average dicots (average dicots): ineffective | % compared to control, WPM (Erysiphe graminis): 75% | insecticide activity, southern root knot nematode [4]: ineffective | insecticide activity, green peach aphid (green peach aphid): ineffective | insecticide activity, mexican bean beetle (mexican bean beetle): ineffective | % compared to control, RSB (Pellicularia filamentosa): 0% | % compared to control, CDM [5]: 0% | insecticide activity, two-spotted spider mite (two-spotted spider mite): ineffective | % compared to control, WLR (Puccinia recondita): 0% | IC50 (Alternaria chrysanthemi): 10 µg/mL (≈ 48 µM) | IC50 ([6]; Example 11, liquid medium, two days): > 500 µg/mL | insecticide activity, southern corn rootworm (southern corn rootworm): ineffective | IC50 [7]: > 200 µg/mL | IC50 (Rhizobium japonicum): > 500 µg/mL | % compared to control, RB (Piricularia oryzae; [9]): 0% | herbicide effect against one or more of the listed weeds (weeds; 2 lbs/acre): ineffective | % compared to control, TLB (Phytophtora infestans; [9]): 0% | herbicide effect, signal grass (signal grass): ineffective | herbicide effect, average monocots (average monocots): ineffective | insecticide activity, southern armyworm (southern armyworm): ineffective | effect on Xanthomonas campestris (Xanthomonas campestris): effective | herbicide effect, pigweed (pigweed): ineffective | IC50 (Cladosporium herbarum): 16.5 µg/mL (≈ 79.2 µM) | IC50 (Pyrenochaeta terrestris): 10 µg/mL (≈ 48 µM)

C=CCc1cc(OC)c(OC)c2c1OCO2 [Compound 5, 4,5-dimethoxy-2,3-methylenedioxy-1-allyl benzene]
IC50 [1]: 10 µg/mL (≈ 45 µM) | herbicide effect, velvet leaf (velvet leaf): ineffective | herbicide effect, green foxtails (green foxtails): ineffective | IC50 [2]: > 500 µg/mL | IC50 (Alternaria brassicicola): 8 µg/mL (≈ 36 µM) | IC50 [3]: 16 µg/mL (≈ 72 µM) | herbicide effect, average dicots (average dicots): ineffective | herbicide effect, barnyard grass (barnyard grass): ineffective | IC50 [8]: 10 µg/mL (≈ 45 µM) | % compared to control, WPM (Erysiphe graminis): 95% | herbicide effect, morning glory (morning glory): ineffective | % compared to control, RSB (Pellicularia filamentosa): 0% | effectiveness against rice sheath blight (Pellicularia filamentosa; in vivo): substantially ineffective | % compared to control, CDM [5]: 0% | effectiveness against cucumber downy mildew ([5]; in vivo): substantially ineffective | % compared to control, WLR (Puccinia recondita): 0% | effectiveness against wheat leaf rust (Puccinia recondita; in vivo): substantially ineffective | herbicide effect, johnson grass (johnson grass): ineffective | IC50 (Alternaria chrysanthemi): 10 µg/mL (≈ 45 µM) | IC50 [6]: > 500 µg/mL | herbicide effect, yellow nutsedge (yellow nutsedge): ineffective | IC50 [7]: > 200 µg/mL | IC50 (Rhizobium japonicum): > 500 µg/mL | % compared to control, RB (Piricularia oryzae; in vivo): 0% | effectiveness against rice blast (Piricularia oryzae; in vivo): substantially ineffective | herbicide effect against one or more of the listed weeds (weeds; 4 lbs/acre): ineffective | herbicide effect, smartweed (smartweed): ineffective | herbicide effect, cockleburr (cockleburr): ineffective | % compared to control, TLB (Phytophtora infestans; in vivo): 0% | effectiveness against tomato leaf blight (Phytophtora infestans; in vivo): substantially ineffective | herbicide effect, average monocots (average monocots): ineffective | herbicide effect, pigweed (pigweed): ineffective | herbicide effect, wild oat (wild oat): ineffective | IC50 (Cladosporium herbarum): 16 µg/mL (≈ 72 µM) | IC50 (Pyrenochaeta terrestris): 10 µg/mL (≈ 45 µM)

CCOP(=O)(Sc1ccccc1)Sc1ccccc1 [EDIFENPHOS, O-ethyl-S,S-diphenyl-dithiophosphate]
activity preventing infection of wheat by Erysiphe graminis (Erysiphe graminis; in the range of 75-300 ppm): 100% | toxicity to fish (fish): toxic to fish

CC(C)OC(=O)C(C(=O)OC(C)C)=C1SCCS1 [FUJI-ONE, diissopropyl-1,3-dithiolau-2-ylidane malonate]
activity preventing infection of wheat by Erysiphe graminis (Erysiphe graminis; at up to 300 ppm): 0%

C=CCOC1=NS(=O)(=O)c2ccccc21 [ORYZEMATE]
activity preventing infection of wheat by Erysiphe graminis (Erysiphe graminis; at up to 300 ppm): 0%

CCCc1cc2c(c(OC)c1OC)OCO2 [propyl analog of dillapiole]
synergic with pyrethrins against flour beetles (flour beetles): effective synergic | synergic with pyrethrins against houseflies (houseflies): effective synergic | synergic with pyrethrins against cockroaches (cockroaches): effective synergic

MANCOZEB
activity preventing infection of wheat by Erysiphe graminis (Erysiphe graminis; at up to 300 ppm): 0%

From patent US4876277A, “Antimicrobial/antifungal compositions” (Plant Cell Research Institute, Inc., priority 1987, dated 1989)
